Experiments:
Assay type in all cases: cell-based
[1] = test system: SH-SY5Y human neuroblastoma cells
[2] = test system: SH-SY5Y human neuroblastoma cells; remark: listed apart in the source
[3] = test system: SH-SY5Y human neuroblastoma cells; remark: listed apart in the source

CCCC(=O)Nc1ncnc2c1ncn2[C@@H]1O[C@@H]2COP(=O)(O)O[C@H]2[C@H]1OC(=O)CCC [db-cAMP, dibutyril c-AMP]
elongation / length of the neurites [1]: triggers elongation of neurites

lysophosphatidic acid [LPA]
length / collapsing of neurites with increasing doses of LPA [2]: linear retraction of the length of the neurites
neurites after LPA treatment (retraction or preservation) [2]: retraction of the neurites

OO [H2O2, hydrogen peroxide]
neurite retraction after hydrogen peroxide treatment [3]: neurites shorten

Source: patent US9249194B2 (priority 2009, dated 2016)
